pIC50: −log10 of the molar value.

Assay [1] has as its system MOLT-4 cells. Put plainly: MOLT-4 cell viability, CTG assay. Type of assay: cell-based. The settings on record: Homo sapiens, MOLT-4, 48 h. The source says:
The MTT colorimetric assay is based on the mitochondrial reduction of tetrazolium salt by living cells. The viable cell number is proportional to the production of formazan salts, which can be read spectrophotometrically at 540 nm. The CTG luminescent assay (CellTiter GLO, Promega) is based on a reagent which lyses cells and measures total adenosine triphosphate (ATP) content. The viable cell number is proportional to the production of ATP.
MOLT-4 cells were purchased from ATCC and cultivated in RPMI 1640 supplemented with 10% heat inactivated fetal bovine serum, penicillin (100 IU/mi), streptomycin (100 μg/ml) and L-glutamine (2 mM). Cells were cultured at 37° C. in a humidified atmosphere containing 5% […].
For CTG assay, cells were seeded in 384 microwell plates (40 μL per well) and exposed to the compounds for 48 h (11-point serial dilution with 5-fold factor, triplicates). At the end of incubation time, 40 μL of CTG solution were added per well. Wells were mixed thoroughly, and plates were incubated at room temperature for 10 minutes to stabilize luminescent signals prior to reading using a luminescence reader (PHERAStar FSX Reader, BMG Labtech).
IC50, were calculated using standard four-parametric curve fitting. IC50 is defined as the compound concentration at which the MTT or CTG signal is reduced to 50% of that measured for the control. Results shown in Table 14 represent the mean of at least 2 independent experiments.

The target of assay [2] is T1, Bcl-xL (Homo sapiens, UniProt Q07817).
T1 construct: Measured levels of Bcl-xL protein of HCT116 cells treated with the tested compounds; host or cells: HCT116
T1 sequence (Q07817 whole entry): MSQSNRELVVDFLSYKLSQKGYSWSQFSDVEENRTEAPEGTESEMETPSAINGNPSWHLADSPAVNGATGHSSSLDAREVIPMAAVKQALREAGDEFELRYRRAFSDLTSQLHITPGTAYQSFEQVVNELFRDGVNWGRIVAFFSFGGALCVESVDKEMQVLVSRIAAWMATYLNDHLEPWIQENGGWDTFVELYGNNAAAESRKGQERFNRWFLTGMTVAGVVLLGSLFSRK
Put plainly: HCT116 Bcl-xL degradation, capillary-based immunoassay (WES). The assay is classed as cell-based. The note with it: HCT116, 24 h, 9-point serial dilution. The protocol:
HCT116 cells were purchased from ATCC and cultivated in RPMI 1640 supplemented with 10% heat inactivated fetal bovine serum, penicillin (100 IU/mi), streptomycin (100 μg/ml) and L-glutamine (2 mM). Cells were cultured at 37° C. in a humidified atmosphere containing 5% CO2. Cells were seeded in 96 microwell plates, 24 h later cells were treated with compounds (2-point 10/100 nM and/or 9-point serial dilution to determine DC50; quadruplicates) during 24 h and harvested in lysis buffer containing 10 mM Hepes (pH 7.5), 150 mM KCl, 5 mM MgCl2, 1 mM EDTA, 0.4% TritonX100, protease and phosphatase inhibitors cocktails (Calbiochem).
Protein concentration in the supernatants was determined using the Pierce BCA protein assay kit (Thermo Fisher Scientific). Lysates (1.5 μg/μL) were analyzed using an automated capillary electrophoresis WES system with 2-40 kDa Wes Separation Module (25 capillary cartridges, Proteinsimple), in accordance with the manufacturer's protocols. Antibodies against the following proteins were used: Bcl-xL (#2764, Cell Signaling Technology, 1:50) and cofilin (#5175, Cell Signaling Technology, 1:1000). Signals were detected with an HRP-conjugated secondary anti-rabbit antibody (#042-206, Proteinsimple) and were quantified using Compass software (version 4.0, Proteinsimple).
Bcl-xL level was calculated by normalizing Bcl-xL values to cofilin and expressed as a percentage of the normalized value of the untreated cells. DC50 were calculated using standard four-parametric curve fitting. DC50 is defined as the compound concentration at which Bcl-xL is reduced to 50% of that measured for the control. Measured levels of Bcl-xL protein of HCT116 cells treated with the tested compounds at 2-point 10 nM/100 nM and/or 9-point for DC50 determination are shown in Table 15.

A word on the pIC50: it is the negative decadic logarithm of the IC50, by convention in mol/L. A high value points to a small IC50. Broadly, the DC50 is the concentration at which degradation of the target reaches its halfway point. Read a high DC50 as a less potent degrader. `Cc1c(Nc2nc3ccccc3s2)nnc2c1CCCN2c1ccc(-c2cnn(CC34CC5(C)CC(C)(C3)CC(OCCN(C)CCCCCCCC(=O)N3CCC(c6ccc7c(c6)CN(C6CCC(=O)NC6=O)C7=O)CC3)(C5)C4)c2C)c(C(=O)O)n1` (centres unmarked) [Example 68, 6-[3-(1,3-benzothiazol-2-ylamino)-4-methyl-6,7-dihydro-5H-pyrido[2,3-c]pyridazin-8-yl]-3-[1-[[3-[2-[[8-[4-[2-(2,6-dioxo-3-piperidyl)-1-oxo-isoindolin-5-yl]-1-piperidyl]-8-oxo-octyl]-methyl-amino]ethoxy]-5,7-dimethyl-1-adamantyl]methyl]-5-methyl-pyrazol-4-yl]pyridine-2-carboxylic acid] showed a pIC50 in assay [1] of 7.82. Also, the DC50 in assay [2] was over 316 nM.
The matching figures for `Cc1c(Nc2nc3ccccc3s2)nnc2c1CCCN2c1ccc(-c2cnn(CC34CC5(C)CC(C)(C3)CC(OCCN(C)CCCCCCCCCCCCCCCCOc3ccc6c(c3)C(=O)N(C3CCC(=O)NC3=O)C6=O)(C5)C4)c2C)c(C(=O)O)n1` (centres unmarked) [Example 147, 6-[3-(1,3-benzothiazol-2-ylamino)-4-methyl-6,7-dihydro-5H-pyrido[2,3-c]pyridazin-8-yl]-3-[1-[[3-[2-[16-[2-(2,6-dioxo-3-piperidyl)-1,3-dioxo-isoindolin-5-yl]oxyhexadecyl-methyl-amino]ethoxy]-5,7-dimethyl-1-adamantyl]methyl]-5-methyl-pyrazol-4-yl]pyridine-2-carboxylic acid]: 8.27 and over 316 nM.
As for `Cc1cc(N(CCCCN(C)C(=O)CCCCCCCCCNc2cccc3c2C(=O)N(C2CCC(=O)NC2=O)C3=O)c2ccc(-c3cnn(CC45CC6(C)CC(C)(C4)CC(OCCN(C)C)(C6)C5)c3C)c(C(=O)O)n2)nnc1Nc1nc2ccccc2s1` (centres unmarked) [Example 92, 6-[[6-(1,3-benzothiazol-2-ylamino)-5-methyl-pyridazin-3-yl]-[4-[10-[[2-(2,6-dioxo-3-piperidyl)-1,3-dioxo-isoindolin-4-yl]amino]decanoyl-methyl-amino]butyl]amino]-3-[1-[[3-[2-(dimethylamino)ethoxy]-5,7-dimethyl-1-adamantyl]methyl]-5-methyl-pyrazol-4-yl]pyridine-2-carboxylic acid], in assay [1], the pIC50 was 7.83. In addition, in assay [2], the DC50 was 0.954 nM.
The matching figures for `Cc1c(Nc2nc3ccccc3s2)nnc2c1CCCN2c1ccc(-c2cnn(CC34CC5(C)CC(C)(C3)CC(OCCN(C)CCCCCCCCCCCCCOc3ccc6c(c3)C(=O)N(C3CCC(=O)NC3=O)C6=O)(C5)C4)c2C)c(C(=O)O)n1` (centres unmarked) [Example 115, 6-[3-(1,3-benzothiazol-2-ylamino)-4-methyl-6,7-dihydro-5H-pyrido[2,3-c]pyridazin-8-yl]-3-[1-[[3-[2-[13-[2-(2,6-dioxo-3-piperidyl)-1,3-dioxo-isoindolin-5-yl]oxytridecyl-methyl-amino]ethoxy]-5,7-dimethyl-1-adamantyl]methyl]-5-methyl-pyrazol-4-yl]pyridine-2-carboxylic acid]: 8.41 and 0.266 nM.
`Cc1c(Nc2nc3ccccc3s2)nnc2c1CCCN2c1ccc(-c2cnn(CC34CC5(C)CC(C)(C3)CC(OCCN(C)CCCCCCCCC(=O)N3CCC(c6ccc7c(c6)CN(C6CCC(=O)NC6=O)C7=O)CC3)(C5)C4)c2C)c(C(=O)O)n1` (centres unmarked) [Example 71, 6-[3-(1,3-benzothiazol-2-ylamino)-4-methyl-6,7-dihydro-5H-pyrido[2,3-c]pyridazin-8-yl]-3-[1-[[3-[2-[[9-[4-[2-(2,6-dioxo-3-piperidyl)-1-oxo-isoindolin-5-yl]-1-piperidyl]-9-oxo-nonyl]-methyl-amino]ethoxy]-5,7-dimethyl-1-adamantyl]methyl]-5-methyl-pyrazol-4-yl]pyridine-2-carboxylic acid] had a pIC50 in assay [1] of 7.99. The compound further gave a DC50 in assay [2] of over 316 nM.
As for `CN[C@@H](C)C(=O)N[C@H](C(=O)N1CCC[C@H]1c1nc(C(=O)c2cccc(OCCCCCCCCN(C)CCOC34CC5(C)CC(C)(CC(Cn6ncc(-c7ccc(N8CCCc9c8nnc(Nc8nc%10ccccc%10s8)c9C)nc7C(=O)O)c6C)(C5)C3)C4)c2)cs1)C1CCCCC1` [Example 97, 6-[3-(1,3-benzothiazol-2-ylamino)-4-methyl-6,7-dihydro-5H-pyrido[2,3-c]pyridazin-8-yl]-3-[1-[[3-[2-[8-[3-[2-[(2S)-1-[(2S)-2-cyclohexyl-2-[[(2S)-2-(methylamino)propanoyl]amino]acetyl]pyrrolidin-2-yl]thiazole-4-carbonyl]phenoxy]octyl-methyl-amino]ethoxy]-5,7-dimethyl-1-adamantyl]methyl]-5-methyl-pyrazol-4-yl]pyridine-2-carboxylic acid], the pIC50 in assay [1] is 8.42. In addition, in assay [2], the DC50 came out at 0.356 nM.
`Cc1c(Nc2nc3ccccc3s2)nnc2c1CCCN2c1ccc(-c2cnn(CC34CC5(C)CC(C)(C3)CC(OCCN(C)CCCCCC(=O)N3CCC(c6ccc7c(c6)CN(C6CCC(=O)NC6=O)C7=O)CC3)(C5)C4)c2C)c(C(=O)O)n1` (centres unmarked) [Example 67, 6-[3-(1,3-benzothiazol-2-ylamino)-4-methyl-6,7-dihydro-5H-pyrido[2,3-c]pyridazin-8-yl]-3-[1-[[3-[2-[[6-[4-[2-(2,6-dioxo-3-piperidyl)-1-oxo-isoindolin-5-yl]-1-piperidyl]-6-oxo-hexyl]-methyl-amino]ethoxy]-5,7-dimethyl-1-adamantyl]methyl]-5-methyl-pyrazol-4-yl]pyridine-2-carboxylic acid] showed a pIC50 in assay [1] of 7.62. The half-maximal degradation concentration (DC50) in assay [2] was over 316 nM.
For the compound `Cc1c(Nc2nc3ccccc3s2)nnc2c1CCCN2c1ccc(-c2cnn(CC34CC5(C)CC(C)(C3)CC(OCCN(C)CCCCCCCCCCCOc3ccc6c(c3)C(=O)N(C3CCC(=O)NC3=O)C6=O)(C5)C4)c2C)c(C(=O)O)n1` (centres unmarked) [Example 105, 6-[3-(1,3-benzothiazol-2-ylamino)-4-methyl-6,7-dihydro-5H-pyrido[2,3-c]pyridazin-8-yl]-3-[1-[[3-[2-[11-[2-(2,6-dioxo-3-piperidyl)-1,3-dioxo-isoindolin-5-yl]oxyundecyl-methyl-amino]ethoxy]-5,7-dimethyl-1-adamantyl]methyl]-5-methyl-pyrazol-4-yl]pyridine-2-carboxylic acid], the pIC50 in assay [1] is 8.76. In assay [2], the DC50 was determined as 0.0447 nM.
With `Cc1c(Nc2nc3ccccc3s2)nnc2c1CCCN2c1ccc(-c2cnn(CC34CC5(C)CC(C)(C3)CC(OCCN(C)CCCCCCCCCOc3ccc6c(c3)C(=O)N(C3CCC(=O)NC3=O)C6=O)(C5)C4)c2C)c(C(=O)O)n1` (centres unmarked) [Example 104, 6-[3-(1,3-benzothiazol-2-ylamino)-4-methyl-6,7-dihydro-5H-pyrido[2,3-c]pyridazin-8-yl]-3-[1-[[3-[2-[9-[2-(2,6-dioxo-3-piperidyl)-1,3-dioxo-isoindolin-5-yl]oxynonyl-methyl-amino]ethoxy]-5,7-dimethyl-1-adamantyl]methyl]-5-methyl-pyrazol-4-yl]pyridine-2-carboxylic acid], the pIC50 in assay [1] is 8.76. Half-maximal degradation in assay [2] (DC50) was put at 0.0184 nM.
In turn, `CN[C@@H](C)C(=O)N[C@H](C(=O)N1CCC[C@H]1c1nc(C(=O)c2cccc(OCCCCCCCCCCN(C)CCOC34CC5(C)CC(C)(CC(Cn6ncc(-c7ccc(N8CCCc9c8nnc(Nc8nc%10ccccc%10s8)c9C)nc7C(=O)O)c6C)(C5)C3)C4)c2)cs1)C1CCCCC1` [Example 98, 6-[3-(1,3-benzothiazol-2-ylamino)-4-methyl-6,7-dihydro-5H-pyrido[2,3-c]pyridazin-8-yl]-3-[1-[[3-[2-[10-[3-[2-[(2S)-1-[(2S)-2-cyclohexyl-2-[[(2S)-2-(methylamino)propanoyl]amino]acetyl]pyrrolidin-2-yl]thiazole-4-carbonyl]phenoxy]decyl-methyl-amino]ethoxy]-5,7-dimethyl-1-adamantyl]methyl]-5-methyl-pyrazol-4-yl]pyridine-2-carboxylic acid] gave a pIC50 in assay [1] of 8.32. The DC50 in assay [2] worked out at 0.362 nM.

These data come from US20240376094A2, “SELECTIVE BCL-XL PROTAC COMPOUNDS AND METHODS OF USE” (Les Laboratoires Servier, priority 2021, published 2024).
